Publication PMC7002685, “Inhibition of vascular calcification by inositol phosphates derivatized with ethylene glycol oligomers” (Nature Communications, 2020)
Values joined by “and” are separate entries in the source; they are usually repeats but may differ in a detail not shown here. Equal entries are not always repeated.

Key:
Melanocortin MC1 = target: T1, Melanocortin MC1 (Homo sapiens, UniProt Q01726); assay: Off-target 251100 (MC1); format: binding
T1 construct: purchased Eurofins Panlabs Discovery Services Taiwan, Ltd
Procedure: (§1) The potential off-target activity of 10 µM (OEG2)2-IP4 was assessed against a panel of 87 enzymes, receptors, or ion channels that are used in standard safety pharmacology screens.
(§2) 3.2. Off-target screening assay
(§3) The experiments were conducted by a contract research organization (Eurofins Panlabs Discovery Services Taiwan, Ltd.) and details on the respective assays can be retrieved via the catalog number provided in Supplementary Table 11 from the company’s webpage
(§4) (https://www.eurofinsdiscoveryservices.com/). […]
(§5) At sacrifice the left tibia of animals of the rat model with dietary adenine/high-phosphate-induced uremia and VC was collected, fixed with 70% v/v EtOH and embedded in methyl methacrylate. The trabecular bone compartment is known to be the most metabolic active i.e. actively re-structured bone compartment in CKD. Therefore, histomorphometric and micro-computed tomography (µCT) analysis of bone was performed on the trabecular compartment. Tibial sections were Goldner-stained for histomorphometric analysis of the proximal metaphysis using the AxioVision Release 4.5 software, as […]
(§6) described previously5. […]

Endothelin ETA = target: T2, Endothelin ETA (Homo sapiens, UniProt P25101); assay: Off-target 224010; format: binding
T2 construct: purchased Eurofins Panlabs Discovery Services Taiwan, Ltd
Procedure: as §1, §2, §3, §4, §5, §6

Chemokine CCR1 = target: T3, Chemokine CCR1 (Homo sapiens, UniProt P32246); assay: Off-target 217510; format: binding
T3 construct: purchased Eurofins Panlabs Discovery Services Taiwan, Ltd
Procedure: as §1, §2
The experiments were conducted by a contract research organization (Eurofins Panlabs Discovery
Services Taiwan, Ltd.) and details on the respective assays can be retrieved via the catalog number
provided in Supplementary Table 11 from the company’s webpage
as §4

[1] = system: panel of 87 enzymes, receptors, or ion channels; assay: Off-target panel of 87 enzymes, receptors, or ion channels; format: biochemical; conditions: 10 µM
Procedure: as §1, §2, §3, §4, §5, §6

vascular calcification = assay: Vitamin D3 (oral) + warfarin diet rat model of VC
[2] = Plasma calcium after s.c. administration in healthy rats; format: in vivo, rat; conditions: individual rats
Procedure: One potential side effect of inositol phosphate-based drugs is toxicity due to chelation of ionized serum calcium. […] At 100 µM (OEG2)2-IP4, 96 ± 2% of control serum-ionized calcium was measured.
To study PK in healthy animals, male Sprague-Dawley rats (Harlan, Correzzana, Italy) were housed up to three per cage with free access to water and standard chow (pellets 12 mm, global diet 2018 certificate, Mucedola, Srl, Settimo Milanese, Italy), and submitted to a 12-h light/dark cycle. Animals were administered i.v. 10 mg/kg of (OEG2)2-IP4 in saline solution i.v. (30 s bolus, 5 mL/kg) and s.c. (5 mL/kg), respectively, in three animals per route and treatment. […] Plasma calcium concentration was determined in pre-dose samples and in t = 30 min samples of both acute and chronic treatments using the calcium colorimetric assay. Blood samples of 100 µL were drawn at several time points from the caudal vein, centrifuged at (3000 × g, 4 °C, 10 min) and stored at −80 °C until analysis by liquid chromatography–tandem mass spectrometry (LC-MS/MS).

T3 sequence (P32246 whole entry): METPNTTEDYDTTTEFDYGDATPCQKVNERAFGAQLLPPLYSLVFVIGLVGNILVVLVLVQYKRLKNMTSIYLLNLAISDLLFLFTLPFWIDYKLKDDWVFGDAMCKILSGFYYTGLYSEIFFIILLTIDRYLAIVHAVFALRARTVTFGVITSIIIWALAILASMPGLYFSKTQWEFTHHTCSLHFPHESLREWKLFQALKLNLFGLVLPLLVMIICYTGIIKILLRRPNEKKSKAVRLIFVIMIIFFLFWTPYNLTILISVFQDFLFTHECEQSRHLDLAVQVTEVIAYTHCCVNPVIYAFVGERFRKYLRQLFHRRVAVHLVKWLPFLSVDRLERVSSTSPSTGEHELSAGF
T2 sequence (P25101 21-427): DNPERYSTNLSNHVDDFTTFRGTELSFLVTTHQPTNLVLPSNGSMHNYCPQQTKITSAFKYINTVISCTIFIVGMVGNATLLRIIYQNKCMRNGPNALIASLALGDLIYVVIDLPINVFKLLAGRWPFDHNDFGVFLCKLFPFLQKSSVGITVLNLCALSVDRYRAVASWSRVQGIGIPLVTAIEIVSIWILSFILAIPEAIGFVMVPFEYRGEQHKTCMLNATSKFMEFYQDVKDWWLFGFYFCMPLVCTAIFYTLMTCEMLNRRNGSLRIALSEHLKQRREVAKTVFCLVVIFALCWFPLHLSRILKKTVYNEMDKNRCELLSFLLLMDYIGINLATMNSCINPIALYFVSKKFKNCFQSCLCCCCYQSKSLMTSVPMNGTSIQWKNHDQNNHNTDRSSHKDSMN
T1 sequence (Q01726 whole entry): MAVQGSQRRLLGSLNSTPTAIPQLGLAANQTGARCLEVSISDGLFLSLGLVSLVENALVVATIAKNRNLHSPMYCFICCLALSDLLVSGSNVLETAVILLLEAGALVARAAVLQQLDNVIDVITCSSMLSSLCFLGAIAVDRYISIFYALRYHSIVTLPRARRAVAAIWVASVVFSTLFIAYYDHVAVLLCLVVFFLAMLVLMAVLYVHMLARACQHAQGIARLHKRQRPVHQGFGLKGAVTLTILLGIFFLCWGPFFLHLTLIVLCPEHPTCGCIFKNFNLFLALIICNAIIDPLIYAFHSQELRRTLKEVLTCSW

COCCOCCO[C@@H]1[C@@H](OP(=O)(O)O)[C@H](OCCOCCOC)[C@@H](OP(=O)(O)O)[C@@H](OP(=O)(O)O)[C@H]1OP(=O)(O)O [(OEG2)2-IP4, 4,6-Di-O-(methoxy-diethyleneglycol)-myo-inositol-1,2,3,5-tetrakis(phosphate)]
inhibition at 10 µM (Melanocortin MC1): 9% | inhibition at 10 µM (Endothelin ETA): 8% | inhibition at 10 µM (Chemokine CCR1): -2% | off-target activity in 87 biochemical assays [1]: did not significantly inhibit or stimulate any | animals alive (Figure 5d) (vascular calcification; 1x12.5, Day 0): 12 | survival (Figure 5d) (vascular calcification; 1x12.5, Day 0): 100% | animals alive (Figure 5d) (vascular calcification; 1x12.5, Day 4.99): 12 | survival (Figure 5d) (vascular calcification; 1x12.5, Day 4.99): 100% | animals alive (Figure 5d) (vascular calcification; 1x12.5, Day 5.01): 11 | survival (Figure 5d) (vascular calcification; 1x12.5, Day 5.01): 92% | animals alive (Figure 5d) (vascular calcification; 1x12.5, Day 5.99): 11 | survival (Figure 5d) (vascular calcification; 1x12.5, Day 5.99): 92% | animals alive (Figure 5d) (vascular calcification; 1x12.5, Day 6.01): 9 | survival (Figure 5d) (vascular calcification; 1x12.5, Day 6.01): 75% | animals alive (Figure 5d) (vascular calcification; 1x12.5, Day 6.99): 9 | survival (Figure 5d) (vascular calcification; 1x12.5, Day 6.99): 75% | animals alive (Figure 5d) (vascular calcification; 1x12.5, Day 7.01): 7 | survival (Figure 5d) (vascular calcification; 1x12.5, Day 7.01): 58% | animals alive (Figure 5d) (vascular calcification; 1x12.5, Day 7.99): 7 | survival (Figure 5d) (vascular calcification; 1x12.5, Day 7.99): 58% | animals alive (Figure 5d) (vascular calcification; 1x12.5, Day 8.01): 7 | survival (Figure 5d) (vascular calcification; 1x12.5, Day 8.01): 58% | animals alive (Figure 5d) (vascular calcification; 1x12.5, Day 8.1): 7 | survival (Figure 5d) (vascular calcification; 1x12.5, Day 8.1): 58% | calcification in the femoral artery (vascular calcification; 1x12.5 to 2x50 mg/kg/day): dose-dependently prevents calcification in the femoral artery | animals alive (Figure 5d) (vascular calcification; 1x25, Day 0): 12 | survival (Figure 5d) (vascular calcification; 1x25, Day 0): 100% | animals alive (Figure 5d) (vascular calcification; 1x25, Day 4.99): 12 | survival (Figure 5d) (vascular calcification; 1x25, Day 4.99): 100% | animals alive (Figure 5d) (vascular calcification; 1x25, Day 5.01): 12 | survival (Figure 5d) (vascular calcification; 1x25, Day 5.01): 100% | animals alive (Figure 5d) (vascular calcification; 1x25, Day 5.99): 12 | survival (Figure 5d) (vascular calcification; 1x25, Day 5.99): 100% | animals alive (Figure 5d) (vascular calcification; 1x25, Day 6.01): 10 | survival (Figure 5d) (vascular calcification; 1x25, Day 6.01): 83% | animals alive (Figure 5d) (vascular calcification; 1x25, Day 6.99): 10 | survival (Figure 5d) (vascular calcification; 1x25, Day 6.99): 83% | animals alive (Figure 5d) (vascular calcification; 1x25, Day 7.01): 8 | survival (Figure 5d) (vascular calcification; 1x25, Day 7.01): 67% | animals alive (Figure 5d) (vascular calcification; 1x25, Day 7.99): 8 | survival (Figure 5d) (vascular calcification; 1x25, Day 7.99): 67% | animals alive (Figure 5d) (vascular calcification; 1x25, Day 8.01): 8 | survival (Figure 5d) (vascular calcification; 1x25, Day 8.01): 67% | animals alive (Figure 5d) (vascular calcification; 1x25, Day 8.1): 8 | survival (Figure 5d) (vascular calcification; 1x25, Day 8.1): 67% | animals alive (Figure 5d) (vascular calcification; 1x50, Day 0): 19 | survival (Figure 5d) (vascular calcification; 1x50, Day 0): 100% | animals alive (Figure 5d) (vascular calcification; 1x50, Day 4.99): 19 | survival (Figure 5d) (vascular calcification; 1x50, Day 4.99): 100% | animals alive (Figure 5d) (vascular calcification; 1x50, Day 5.01): 19 | survival (Figure 5d) (vascular calcification; 1x50, Day 5.01): 100% | animals alive (Figure 5d) (vascular calcification; 1x50, Day 5.99): 19 | survival (Figure 5d) (vascular calcification; 1x50, Day 5.99): 100% | animals alive (Figure 5d) (vascular calcification; 1x50, Day 6.01): 19 | survival (Figure 5d) (vascular calcification; 1x50, Day 6.01): 100% | animals alive (Figure 5d) (vascular calcification; 1x50, Day 6.99): 19 | survival (Figure 5d) (vascular calcification; 1x50, Day 6.99): 100% | animals alive (Figure 5d) (vascular calcification; 1x50, Day 7.01): 17 | survival (Figure 5d) (vascular calcification; 1x50, Day 7.01): 89% | animals alive (Figure 5d) (vascular calcification; 1x50, Day 7.99): 17 | survival (Figure 5d) (vascular calcification; 1x50, Day 7.99): 89% | animals alive (Figure 5d) (vascular calcification; 1x50, Day 8.01): 15 | survival (Figure 5d) (vascular calcification; 1x50, Day 8.01): 79% | animals alive (Figure 5d) (vascular calcification; 1x50, Day 8.1): 15 | survival (Figure 5d) (vascular calcification; 1x50, Day 8.1): 79% | survival (vascular calcification; 2 x 25 mg/kg s.c.): 100% | animals alive (Figure 5d) (vascular calcification; 2x25, Day 0): 18 | survival (Figure 5d) (vascular calcification; 2x25, Day 0): 100% | animals alive (Figure 5d) (vascular calcification; 2x25, Day 4.99): 18 | survival (Figure 5d) (vascular calcification; 2x25, Day 4.99): 100% | animals alive (Figure 5d) (vascular calcification; 2x25, Day 5.01): 18 | survival (Figure 5d) (vascular calcification; 2x25, Day 5.01): 100% | animals alive (Figure 5d) (vascular calcification; 2x25, Day 5.99): 18 | survival (Figure 5d) (vascular calcification; 2x25, Day 5.99): 100% | animals alive (Figure 5d) (vascular calcification; 2x25, Day 6.01): 18 | survival (Figure 5d) (vascular calcification; 2x25, Day 6.01): 100% | animals alive (Figure 5d) (vascular calcification; 2x25, Day 6.99): 18 | survival (Figure 5d) (vascular calcification; 2x25, Day 6.99): 100% | animals alive (Figure 5d) (vascular calcification; 2x25, Day 7.01): 18 | survival (Figure 5d) (vascular calcification; 2x25, Day 7.01): 100% | animals alive (Figure 5d) (vascular calcification; 2x25, Day 7.99): 18 | survival (Figure 5d) (vascular calcification; 2x25, Day 7.99): 100% | animals alive (Figure 5d) (vascular calcification; 2x25, Day 8.01): 18 | survival (Figure 5d) (vascular calcification; 2x25, Day 8.01): 100% | animals alive (Figure 5d) (vascular calcification; 2x25, Day 8.1): 18 | survival (Figure 5d) (vascular calcification; 2x25, Day 8.1): 100% | animals alive (Figure 5d) (vascular calcification; 2x50, Day 0): 19 | survival (Figure 5d) (vascular calcification; 2x50, Day 0): 100% | animals alive (Figure 5d) (vascular calcification; 2x50, Day 4.99): 19 | survival (Figure 5d) (vascular calcification; 2x50, Day 4.99): 100% | animals alive (Figure 5d) (vascular calcification; 2x50, Day 5.01): 19 | survival (Figure 5d) (vascular calcification; 2x50, Day 5.01): 100% | animals alive (Figure 5d) (vascular calcification; 2x50, Day 5.99): 19 | survival (Figure 5d) (vascular calcification; 2x50, Day 5.99): 100% | animals alive (Figure 5d) (vascular calcification; 2x50, Day 6.01): 19 | survival (Figure 5d) (vascular calcification; 2x50, Day 6.01): 100% | animals alive (Figure 5d) (vascular calcification; 2x50, Day 6.99): 19 | survival (Figure 5d) (vascular calcification; 2x50, Day 6.99): 100% | animals alive (Figure 5d) (vascular calcification; 2x50, Day 7.01): 17 | survival (Figure 5d) (vascular calcification; 2x50, Day 7.01): 89% | animals alive (Figure 5d) (vascular calcification; 2x50, Day 7.99): 17 | survival (Figure 5d) (vascular calcification; 2x50, Day 7.99): 89% | animals alive (Figure 5d) (vascular calcification; 2x50, Day 8.01): 16 | survival (Figure 5d) (vascular calcification; 2x50, Day 8.01): 84% | animals alive (Figure 5d) (vascular calcification; 2x50, Day 8.1): 16 | survival (Figure 5d) (vascular calcification; 2x50, Day 8.1): 84% | bulk calcium in carotid artery and femoral artery (vascular calcification; 2 × 25 mg/kg/day): significant reduction in bulk calcium | Mortality rate (vascular calcification; 2 × 25 mg/kg/day s.c. (0/18)): 0% | plasma calcium (Figure 4k) ([2]; Acute, 30 min postdose): 2.45 and 2.725 and 1.925 and 1.85 | plasma calcium (Figure 4k) ([2]; Acute, Predose): 2.8 and 2.45 and 2.3 and 1.975 | plasma calcium (Figure 4k) ([2]; Sub-chronic, 30 min postdose): 2.175 and 2.2 and 2.05 and 1.925 | plasma calcium (Figure 4k) ([2]; Sub-chronic, Predose): 2.275 and 2.3 and 2.55 and 1.925
